Values of other authors as cited in US9125814B2, “Biocompatible crosslinked hydrogels, drug-loaded hydrogels and methods of using the same” (Angiotech Pharmaceuticals, Inc., priority 2008, dated 2015).

In the case of `CCCCN1CCCCC1C(=O)Nc1c(C)cccc1C` (racemic) [racemic bupivacaine, 1-butyl-N-(2,6-dimethylphenyl)piperidine-2-carboxamide], the pKa is listed as about 8.1.
